Legend:
[1] = test system: Hutu 80 human epithelial duodenum adenocarcinoma cell line; assay: Proliferation assay by real time live cell imaging (Incucyte), Hutu 80; type: cell-based; conditions: for effect on cancer cell proliferation, ligand not bound to iron: ligand-only control; for effect on cancer cell proliferation, ligand not bound to iron / effect on cell proliferation: 72 h; for effect on cell proliferation: iron compounds, 5 or 10% FBS, at concentrations predicted in gut lumen with iron supplementation
Method: (§1) FIG. 2: Inhibition of cell proliferation in the Hutu 80 human epithelial duodenum adenocarcinoma cell line with different iron compounds as assessed by real time live cell imaging (Incucyte™) Cells were treated for 72 h with the indicated iron compounds in complete growth media containing 5% FBS (A) or 10% FBS (B), the corresponding ‘ligand-only’ controls are shown in panels C and D. Normalised cell proliferation corresponds to the area under the proliferation curve for cells grown in media supplemented with each compound divided by the area under the curve for cells grown in media alone (i.e. without any of the supplemented compounds). Data are presented as mean with SEM (n=2 independent experiments with 3 replicates for each experiment).
(§2) A stock solution of ferric citrate (FeCitrate) 8 mM [Fe] was produced by adding citric acid to ferric chloride on a 1:1 molar ratio. Ferric trimaltol (FTMB) was produced from iron hydroxides and maltol, and the stock solution of circa 8 mM [Fe] was produced by dissolving it in ultrapure water. All stock solutions were filter sterilised (0.2 μm).
(§3) Three different epithelial cancer cell lines were used: colorectal adenocarcinoma [Caco2 (ATCC) and HT29(ECAAC)] and duodenum adenocarcinoma [Hutu 80 (ATCC)]. The cells were grown in an incubator at 37° C. and an atmosphere of 5% CO2 and 95% air at a relative humidity of approximately 95%. The cancer cells were grown in Gibco® MEM supplemented with 5 or 10% foetal bovine serum (FBS) as stated, 1% penicillin/streptomycin (10.000 Units/ml Penicillin, 10.000 μg/ml Streptomycin) and 1% fungizone (Amphotericin B, 250 μg/ml).
(§4) Working solutions of 2 mM [Fe] for each iron compound were prepared fresh on the day of the experiment by diluting the stock solutions of the different iron materials in complete cell growth medium and these 2 mM solutions were used in the serial dilutions to achieve the 8 different concentrations for the proliferation assay (0.89, 0.49, 0.27, 0.15, 0.08, 0.05, 0.026, 0.015) in 96-well ImageLock cell culture plates. A control condition containing only complete growth medium without any iron compound added was also tested. The cells were seeded at a density of 10,000-20,000 cells/well. The plates were incubated in a Live Content Imaging Incubator (Incucyte ZOOM, Essen BioScience Ltd., UK) and images and confluence data were acquired every 3 hours for 72 hours post-seeding. Within each experiment each iron concentration was tested in triplicate wells.
(§5) The plot of confluence (%) vs time (h) was obtained for each iron compound and concentration. The area under the curve (AUC) was calculated and plotted against the concentration for each test compound or the control. The AUC for each iron compound was normalised against that of the control (i.e. complete growth medium alone).

[2] = test system: HT29 human epithelial colorectal adenocarcinoma cell line; assay: Proliferation assay by real time live cell imaging (Incucyte), HT29; type: cell-based; conditions: for effect on cancer cell proliferation, ligand not bound to iron: ligand-only control; for effect on cancer cell proliferation, ligand not bound to iron / effect on cell proliferation: 72 h; for effect on cell proliferation: iron compounds, 5 or 10% FBS, at concentrations predicted in gut lumen with iron supplementation
Method: FIG. 3: Inhibition of cell proliferation in the HT29 human epithelial colorectal adenocarcinoma cell line with the different iron compounds as assessed by real time live cell imaging (Incucyte™). Conditions were as above in the legend to FIG. 2.
as §2, §3, §4, §5

intestinal cancer = conditions: animal models; cited from earlier work
[3] = patients with inflammatory bowel disease; cited from earlier work
[4] = test system: Caco2 human epithelial colorectal adenocarcinoma cell line; assay: Proliferation assay by real time live cell imaging (Incucyte), Caco2; type: cell-based; conditions: for effect on cell proliferation: iron compounds, 5 or 10% FBS, at concentrations predicted in gut lumen with iron supplementation
Method: as §1, with “1. […]” for “2: Inhibition of cell proliferation in the Hutu 80 human epithelial duodenum adenocarcinoma cell line with different iron compounds as assessed by real time live cell imaging (Incucyte™)”, “(n=3” for “(n=2”
as §2, §3, §4, §5

[5] = review of real time-recorded cell images, concentration as iron

Compound	effect on cancer cell proliferation, ligand not bound to iron [1]	effect on cancer cell proliferation, ligand not bound to iron [2]	effect on cell proliferation [1]	effect on cell proliferation [2]	effect on intestinal cancer (intestinal cancer)	effect on cell proliferation ([4]; 72 h)	further results
O=C(O)CN(CCN(CC(=O)O)CC(=O)O)CC(=O)O [EDTA]	moderate inhibition	moderate inhibition					
O=C([O-])CN(CCN(CC(=O)[O-])CC(=O)[O-])CC(=O)[O-].[Fe+3].[Na+] [ferric EDTA, ferric EDTA sodium salt]			promoted proliferation	promoted proliferation	enhance intestinal cancer		
Cc1occc(=O)c1[O-].Cc1occc(=O)c1[O-].Cc1occc(=O)c1[O-].[Fe+3] [ferric trimaltol]			inhibited cancer cell proliferation	inhibited cancer cell proliferation		inhibited cancer cell proliferation	iron concentration at which cells were non-proliferative [1, 5]: 400 µM; iron concentration at which cells were poorly proliferating [1, 5]: 150 µM; iron concentration at which cells were non-proliferative [2, 5]: 80 µM; iron concentration at which cells were poorly proliferating [2, 5]: 50 µM; correction of iron deficiency anaemia [3]: effectively delivers iron to correct iron deficiency anaemia; iron concentration at which cells were non-proliferative [4, 5]: 80 µM; iron concentration at which cells were poorly proliferating [4, 5]: 50 µM
O.O.O.O.O.O.O.O=S(=O)([O-])[O-].[Fe+2] [ferrous sulphate, Ferrous sulphate heptahydrate]			promoted proliferation	promoted proliferation			
Cc1occc(=O)c1O [maltol, 3-Hydroxy-2-methyl-4H-pyran-4-one]	moderate inhibition	moderate inhibition					effect on cancer cell proliferation, ligand not bound to iron ([4]; ligand-only control, 72 h): moderate inhibition
ferric citrate			promoted proliferation	promoted proliferation	enhance intestinal cancer	promoted proliferation	

Reference: US11406664B2, “Ferric maltol compositions for use in the treatment or prevention of cancer and tumours” (Shield TX (UK) Limited, priority 2016, dated 2022)
